pEC50: −log10 of the molar value. Where two headings read alike, the source gives them in different places.

The test system of assay [1] is Rinderherz PDE "Boehringer". The experiment in a line: Inhibition of phosphodiesterase (PDE), substrate cAMP. The following applies: compound 0,2 mM; substrate cAMP 0,15 mM; Rinderherz PDE in Glycerin; 200 µM. It is filed as biochemical, Rind. On the procedure:
Die Tabelle 1. gibt die gefundenen Werte der Hemmung der Phosphodiesterase (PDE) an. Es wurde Rinderherz PDE "Boehringer" in Glycerin und als Substrat cAMP (0,15 mM) verwendet. Die Konzentration der untersuchten Verbindungen war 0,2 mM.

For assay [2], the system named is durch Methanol hervorgerufene Retinaschädigung. The assay can be described thus: Retinotropic effect measured on the mouse electroretinogram (antagonism of methanol-induced retinal damage). Type of assay: in vivo, Maus. As to conditions: for Retinotrope Wirkung [%]: Elektroretinogramm der Maus; for retinotrope Wirkung (in words): in the dose range in which the compounds of the invention were tested. An excerpt: Die Versuchsmethodik ist bei K.K.Gauri und W.Hohl, Der Augenspiegel, 1979 (Heft 9), und […] Referenzen beschrieben.

Assay [3] relates to Trachealspangen-Kette des Meerschweinchens. The experiment in a line: Relaxation of the spontaneously contracted guinea pig tracheal ring chain in vitro (organ bath). More on the design: species or system Meerschweinchen. The following applies: for Relative Wirkungsstärke (Theophyllin=1,00): relative to Theophyllin, from ED50 of tracheal relaxation; for pEC50: relaxation as fraction of maximum by (-)Isoprenalin 10^-6 mol/l, cumulative concentrations, 37°C, read-out: ED50 (Dosis der halbmaximal möglichen Relaxation). Here is the method:
Weiterhin wurde die relaxierende Wirkung erfindungsgemäBer Verbindungen auf die Trachealspangen-Kette des Meerschweinchens in vitro geprüft:
Vier parallele, aus jeweils 6 Einzelringen bestehende Trachealspangen-Ketten des Meerschweinchens (♂ und ♀, 430-600 g) im Organbad (5 ml, Krebs-Henseleit-Lösung mit Zusatz von Phentolamin (10^-5 mol/l, 37°C, Vorspannung der Organe 2 g, Begasung mit Carbogen) entwickeln nach etwa 20 bis 30 Minuten eine stabile, tonische Spontankontraktur. An diesen dauerkontrahierten Organen kann unter isometrischen Meßbedingungen durch Applikation der Prüfsubstanz in kumulativhalblogarithmisch ansteigender Konzentration (z.B. 1x10^-6 + 2x10^-6 + 7x10^-6 + 2x10^-5 usw. mol/l) eine Relaxation herbeigeführt werden, wobei nach jeder Einzeldosis der Testsubstanz eine konstante Relaxations-Antwort abgewartet wird, bevor die nächst höhere Konzentration appliziert wird. Ober einen Zeitraum von 20 bis 30 Minuten wird somit eine vollständige Dosis-Wirkungskurve der Testsubstanz erhalten. Die jeweilige Relaxation wird als Prozentbruchteil der durch Gabe von (-)Isoprenalin (10^-6 mol/1) maximal erreichbaren Relaxation ausgedrückt.
In Tabelle 3 sind die ED50 (Dosis der halbmaximal möglichen Relaxation) und die relative Wirkungsstärke im Vergleich zu Theophyllin für erfindungsgemäße Verbindungen angegeben.

On to `CCCCCCn1c(=O)n(C)c(=O)c2c[nH]nc21` [I, 7-n-Hexyl-4,5,6,7-tetrahydro-5-methyl-4,6-dioxo-2H-pyrazolo[3,4-d]-pyrimidin], for which the “Hemmung der PDE in %” value in assay [1] is reported as 47,84%.
With `CCCCCCn1c(=O)n(C)c(=O)c2cn(C)nc21` [II, 7-n-Hexyl-4,5,6,7-tetrahydro-2,5-dimethyl-4,6-dioxo-2H-pyrazolo[3,4-d]-pyrimidin], the “Hemmung der PDE in %” value in assay [1] was 47,41%.
Turning to `CCCCCCn1c(=O)n(C)c(=O)c2cn(CC)nc21` [III, 2-Ethyl-7-n-hexyl-4,5,6,7-tetrahydro-5-methyl-4,6-dioxo-2H-pyrazolo-[3,4-d]pyrimidin], the “Retinotrope Wirkung [%]” value in assay [2] (Dosis 1 mg/kg) is reported as “+24%”. Besides, the “Hemmung der PDE in %” value in assay [1] is listed as 58,51%.
Turning to `CCCCCCn1c(=O)n(C)c(=O)c2cn(CCC)nc21` [IV, 7-n-Hexyl-4,5,6,7-tetrahydro-5-methyl-4,6-dioxo-2-n-propyl-2H-pyrazolo-[3,4-d]pyrimidin], in assay [1], the “Hemmung der PDE in %” value was 63,04%.
Consider `CCCCCCn1c(=O)c2cn(CC)nc2n(C)c1=O` [IX, 2-Ethyl-5-n-hexyl-4,5,6,7-tetrahydro-7-methyl-4,6-dioxo-2H-pyrazolo-[3,4-d]pyrimidin], for which, in assay [3], the “Relative Wirkungsstärke (Theophyllin=1,00)” value (“Relative Wirkungsstärke” for short) is 3,4 and the pEC50 is 4.42. Moreover, in assay [2] (Dosis 1 mg/kg), the “Retinotrope Wirkung [%]” value is listed as “+12%”. Besides, the “Hemmung der PDE in %” value in assay [1] is 71,52%.
Consider `CC(=O)CCCCn1c(=O)c2c(ncn2C)n(C)c1=O` [Pentoxifyllin, reference compound], for which, in assay [2] (Dosis 6,25 mg/kg), the “Retinotrope Wirkung [%]” value was 0%. For the same compound, the “retinotrope Wirkung (in words)” value in assay [2] is reported as “noch keine retinotrope Wirkung”.
Take `Cn1c(=O)c2[nH]cnc2n(C)c1=O` [Theophyllin, reference compound]: in assay [3], the “Relative Wirkungsstärke” value is 1,00 and the pEC50 was 3.89. The “Retinotrope Wirkung [%]” value in assay [2] (Dosis 10 mg/kg) worked out at 0%. Besides, in assay [2], the “retinotrope Wirkung (in words)” value was “noch keine retinotrope Wirkung”. Also, the “Hemmung der PDE in %” value in assay [1] is 37,13%.
For the compound `CCCCCCn1c(=O)n(C)c(=O)c2cn(CCCC)nc21` [V, 2-n-Butyl-7-n-hexyl-4,5,6,7-tetrahydro-5-methyl-4,6-dioxo-2H-pyra-zolo-[3,4-d]pyrimidin], in assay [3], the “Relative Wirkungsstärke” value is 1,8 and the pEC50 was 4.21. In addition, the “Hemmung der PDE in %” value in assay [1] was 70,86%.
On to `CCCCCCn1cc2c(=O)n(C)c(=O)n(CCCCCC)c2n1` [VI, 2,7-Di-n-hexyl-4,5,6,7-tetrahydro-5-methyl-4,6-dioxo-2H-pyrazolo[3,4-d]-pyrimidin], for which the “Hemmung der PDE in %” value in assay [1] is recorded as 37,30%.
Take `CCCCCCn1c(=O)c2cn[nH]c2n(C)c1=O` [VII, 5-n-Hexyl-4,5,6,7-tetrahydro-7-methyl-4,6-dioxo-1H-pyrazolo[3,4-d]-pyrimidin]: the “Hemmung der PDE in %” value in assay [1] was 52,43%.
Still for that read-out and setting: next, `CCCCCCn1c(=O)c2cn(C)nc2n(C)c1=O` [VIII, 5-n-Hexyl-4,5,6,7-tetrahydro-2,7-dimethyl-4,6-dioxo-2H-pyrazolo-[3,4-d]pyrimidin]: 42,04%; `CCCCCCn1c(=O)c2cn(CCCC)nc2n(C)c1=O` [X, 2-n-Butyl-5-n-hexyl-4,5,6,7-tetrahydro-7-methyl-4,6-dioxo-2H-pyra-zolo[3,4-d]pyrimidin]: 37,83%.
Still for that read-out and setting: the value for `CCCCCCn1cc2c(=O)n(CCCCCC)c(=O)n(C)c2n1` [XI, 2,5-Di-n-hexyl-4,5,6,7-tetrahydro-7-methyl-4,6-dioxo-2H-pyrazolo-[3,4-d]pyrimidin] was 18,35%.
Consider `CCCCCCn1c(=O)c2cn(C(=O)c3cc(OC)c(OC)c(OC)c3)nc2n(C)c1=O` [XII, 5-n-Hexyl-4,5,6,7-tetrahydro-2-(3,4,5-trimethoxybenzoyl)-7-methyl-4,6-dioxo-2H-pyrazolo[3,4-d]pyrimidin], for which the pEC50 in assay [3] (Cavia porcellus) is 3.46. Moreover, the “Relative Wirkungsstärke” value in assay [3] is 3,7. For the same compound, the “Retinotrope Wirkung [%]” value in assay [2] (Dosis 1 mg/kg) was “+40%”.
Turning to `CCCCCCn1c(=O)n(C)c(=O)c2cnn(C)c21` [XIII, 7-Hexyl-4,5,6,7-tetrahydro-1,5-dimethyl-4,6-dioxo-1H-pyrazolo-[3,4-d]pyrimidin], in assay [3], the “Relative Wirkungsstärke” value was 1,4 and the pEC50 was 4.02.
In the same order, the values of `COc1cc(C(=O)n2cc3c(=O)n(CC(C)C)c(=O)n(C)c3n2)cc(OC)c1OC` [XVI, 5-i-Butyl-4,5,6,7-tetrahydro-2-(3,4,5-trimethoxybenzoyl)-7-methyl-4,6-dioxo-2H-pyrazolo[3,4-d]pyrimidin] are 1,7 and 4.12.
For `CCn1c(=O)n(CCCCC(C)=O)c(=O)c2cnn(C)c21` [XVII, 7-Ethyl-4,5,6,7-tetrahydro-1-methyl-4,6-dioxo-5'-(5-oxo-n-hexyl)-1H-pyrazolo[3,4-d]pyrimidin], in assay [3], the “Relative Wirkungsstärke” value is 2,0 and the pEC50 was 4.18. Moreover, the “Retinotrope Wirkung [%]” value in assay [2] (Dosis 2 mg/kg) was “+80%”.
Regarding `CC(C)Cn1c(=O)n(C)c(=O)c2cn(CCO)nc21` [XVIII, 7-j-Butyl-4,5,6,7-tetrahydro-2-(2-hydroxyethyl)-5-methyl-4,6-dioxo-2H-pyrazolo[3,4-d]pyrimidin], in assay [3], the “Relative Wirkungsstärke” value was 10,0 and the pEC50 is 4.89.
In the same order, the values of `CC(C)Cn1c(=O)n(C)c(=O)c2c[nH]nc21` [XV] are 7,6 and 4.77.

Values taken from EP0063381A1, “Pyrazolo(3-4-d) pyrimidines, process for their preparation and pharmaceutical compositions containing them” (Byk Gulden Lomberg Chemische Fabrik GmbH, priority 1981, dated 1982).
